Test [1] addresses T1, follicle-stimulating hormone (FSH) receptor (Rattus norvegicus, UniProt P20395).
T1 construct: endogenous in cells; host or cells: primary rat granulosa cells
T1 sequence (P20395 18-692): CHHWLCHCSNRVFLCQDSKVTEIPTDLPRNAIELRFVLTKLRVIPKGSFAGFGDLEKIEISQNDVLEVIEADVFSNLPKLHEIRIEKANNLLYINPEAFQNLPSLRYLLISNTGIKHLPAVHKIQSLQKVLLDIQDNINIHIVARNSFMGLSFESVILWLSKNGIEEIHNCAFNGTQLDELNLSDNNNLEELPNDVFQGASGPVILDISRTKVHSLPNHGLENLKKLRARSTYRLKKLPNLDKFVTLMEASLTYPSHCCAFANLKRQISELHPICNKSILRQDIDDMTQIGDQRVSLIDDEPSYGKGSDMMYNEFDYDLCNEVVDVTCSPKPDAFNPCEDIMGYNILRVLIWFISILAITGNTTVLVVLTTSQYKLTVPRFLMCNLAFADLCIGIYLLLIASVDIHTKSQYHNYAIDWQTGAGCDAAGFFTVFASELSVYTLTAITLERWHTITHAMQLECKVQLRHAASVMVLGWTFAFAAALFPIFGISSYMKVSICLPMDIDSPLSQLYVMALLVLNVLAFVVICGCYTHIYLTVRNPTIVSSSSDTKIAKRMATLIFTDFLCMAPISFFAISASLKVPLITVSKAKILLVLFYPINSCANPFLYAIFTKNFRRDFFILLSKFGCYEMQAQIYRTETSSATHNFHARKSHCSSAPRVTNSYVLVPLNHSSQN
Kind of test: Rat granulosa EC50 FSH (Assay B). The format is cell-based. The settings on record: rat granulosa cells; read-out: Assay B: Rat granulosa EC50 FSH. As for the experimental part: Rat Granulosa EC50 FSH (Assay B)
The assay was performed pursuant to the teaching of Yanofsky et al. (2006) Allosteric activation of the follicle-stimulating hormone (FSH) receptor by selective, nonpeptide agonists (JBC 281(19): 13226-13233, which is incorporated by reference in the disclosure of the invention).

A further test concerns the target T2, FSHR (Homo sapiens, UniProt P23945).
T2 construct: expressed in transfected cells; host or cells: CHO (Cho-FSHR-LUC-1-1-43)
T2 sequence (P23945 18-695): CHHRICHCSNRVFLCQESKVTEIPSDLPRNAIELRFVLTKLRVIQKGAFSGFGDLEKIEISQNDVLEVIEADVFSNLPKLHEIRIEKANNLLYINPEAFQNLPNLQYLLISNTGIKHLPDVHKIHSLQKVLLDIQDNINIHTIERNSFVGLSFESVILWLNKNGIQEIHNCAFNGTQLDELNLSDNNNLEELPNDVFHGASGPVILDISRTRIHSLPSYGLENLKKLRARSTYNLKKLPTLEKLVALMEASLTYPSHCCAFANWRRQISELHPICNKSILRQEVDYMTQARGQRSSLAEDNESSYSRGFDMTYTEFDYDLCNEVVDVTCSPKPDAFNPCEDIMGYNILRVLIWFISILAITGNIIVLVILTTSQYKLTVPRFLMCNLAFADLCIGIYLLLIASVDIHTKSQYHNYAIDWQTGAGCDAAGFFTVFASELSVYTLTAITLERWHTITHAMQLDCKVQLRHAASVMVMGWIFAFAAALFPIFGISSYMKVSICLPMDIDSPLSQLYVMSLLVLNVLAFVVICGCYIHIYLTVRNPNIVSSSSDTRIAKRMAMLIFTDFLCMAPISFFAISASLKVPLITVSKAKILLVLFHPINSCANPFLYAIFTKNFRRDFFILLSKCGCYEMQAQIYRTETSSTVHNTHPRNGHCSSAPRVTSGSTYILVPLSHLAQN
Kind of test: EC50 of cyclic AMP production in CHO FSHR cells + EC20 FSH (Assay A). The note with it: CHO FSHR cells + EC20 FSH, cAMP HTRF; read-out: Assay A: EC50 of cyclic AMP production. It counts as cell-based. The method, boiled down: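 Cho-FSHR-LUC cells were exposed to compound dilution series with EC20 FSH ([…]) and 200 μM IBMX for 1 h at 37° C. cAMP was read by HTRF (665/620 nm ratio). Effects are percent of the maximal FSH standard response.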
(TR-FRET usually uses a lanthanide donor and a delayed reading to cut background.)

Structures are written as SMILES.

On to `COc1cc2c(cc1-c1cnn(C(=O)OC(C)(C)C)c1)-c1c(c(C(=O)N(C)C(C)(C)C)nn1-c1ccsc1)CO2` [Compound 20, 4-[3-(tert-Butyl-methyl-carbamoyl)-7-methoxy-1-thiophen-3-yl-1,4-dihydro-chromeno[4,3-c]pyrazol-8-yl]-pyrazole-1-carboxylic acid tert-butyl ester], for which the EC50 (in test [1]; on FSHR) was 100 to 1000 nM throughout.

Consider `[2H]C([2H])([2H])n1cc(-c2cc3c(cc2OC)OCc2c(C(=O)N4CCOCC4(C)C)nn(-c4ccsc4)c2-3)cn1` [Compound 96], for which the values for the 50% effective concentration (EC50) (in test [1]; on FSHR) were 100 to 1000 nM and < 100 nM, respectively.

With `COc1cc2c(cc1CC(C)C)-c1c(c(C(=O)N(C)C(C)(C)C)nn1-c1cccs1)CO2` [Compound 91, 8-Isobutyl-7-methoxy-1-thiophen-2-yl-1,4-dihydro-chromeno[4,3-c]pyrazole-3-carboxylic Acid tert-butyl-methyl-amide], the values for the EC50 (in test [1]; on FSHR) were 1000 to 5000 nM and < 100 nM, respectively.

Take `COc1cc2c(cc1C=C(C)C)-c1c(c(C(=O)NCCN3CCOC3=O)nn1-c1ccsc1)CO2` [Compound 13, 7-Methoxy-8-(2-methyl-propenyl)-1-thiophen-3-yl-1,4-dihydro-chromeno[4,3-c]pyrazole-3-carboxylic acid [2-(2-oxo-oxazolidin-3-yl)-ethyl]-amide]: the EC50 (as a rule, the concentration that produces a half-maximal response) in test [1] was in the range of 1000 to 5000 nM; at FSHR, 100 to 1000 nM.

For `COc1cc2c(cc1-c1ccn(C)n1)-c1c(c(C(=O)N(C)C(C)(C)C)nn1-c1ccsc1)CO2` [Compound 63, 7-Methoxy-8-(1-methyl-1H-pyrazol-3-yl)-1-thiophen-3-yl-1,4-dihydro-chromeno[4,3-c]pyrazole-3-carboxylic acid tert-butyl-methyl-amide], the figures for the EC50 (in test [1]; at FSHR) were 100 to 1000 nM and < 100 nM, respectively.

Regarding `[2H]C([2H])([2H])N(C(=O)c1nn(-c2ccsc2)c2c1COc1cc(OC)c(-c3ccn(C)c3)cc1-2)C1CCOC1` (stereo not drawn) [Compound 146], the EC50 (in test [1]; on FSHR) was 100 to 1000 nM each time.

Consider `COc1cc2c(cc1-c1ccn(C)n1)-c1c(c(C(=O)N3CCN(C)CC3(C)C)nn1-c1ccsc1)CO2` [Compound 159, [7-Methoxy-8-(1-methyl-1H-pyrazol-3-yl)-1-thiophen-3-yl-1,4-dihydro-chromeno[4,3-c]pyrazol-3-yl]-(2,2,4-trimethyl-piperazin-1-yl)-methanone], for which the EC50 (in test [1]; at FSHR) was < 100 nM in each case.

For `COc1cc2c(cc1-c1cc(C)nn1C)-c1c(c(C(=O)N3CCOCC3(C)C)nn1-c1ccsc1)CO2` [Compound 122, (3,3-Dimethyl-morpholin-4-yl)-[8-(2,5-dimethyl-2H-pyrazol-3-yl)-7-methoxy-1-thiophen-3-yl-1,4-dihydro-chromeno[4,3-c]pyrazol-3-yl]-methanone], the EC50 is > 5000 nM in test [1] and < 100 nM at FSHR.

For the compound `CCn1cc(-c2cc3c(cc2OC)OCc2c(C(=O)N4CCOCC4(C)C)nn(-c4ccsc4)c2-3)cn1` [Compound 210, (3,3-Dimethyl-morpholin-4-yl)-[8-(1-ethyl-1H-pyrazol-4-yl)-7-methoxy-1-thiophen-3-yl-1,4-dihydro-chromeno[4,3-c]pyrazol-3-yl]-methanone], the results for the concentration for a half-maximal effect (EC50) (in test [1]; at FSHR) were > 5000 nM and < 100 nM, respectively.

Turning to `COc1cc2c(cc1C1CCCO1)-c1c(c(C(=O)N(C)C(C)(C)C)nn1-c1ccsc1)CO2` (stereo not drawn) [Compound 201, 7-Methoxy-8-(tetrahydro-furan-2-yl)-1-thiophen-3-yl-1,4-dihydro-chromeno[4,3-c]pyrazole-3-carboxylic Acid tert-butyl-methyl-amide], the EC50 in test [1] is 1000 to 5000 nM; on FSHR, 100 to 1000 nM.

`COc1cc2c(cc1-c1ccn(C)c1)-c1c(c(C(=O)NC3(CCO)COC3)nn1-c1ccsc1)CO2` [Compound 186, 7-Methoxy-8-(1-methyl-1H-pyrrol-3-yl)-1-thiophen-3-yl-1,4-dihydro-chromeno[4,3-c]pyrazole-3-carboxylic acid [3-(2-hydroxy-ethyl)-oxetan-3-yl]-amide]: the 50% effective concentration (EC50) in test [1] was 100 to 1000 nM; on FSHR, < 100 nM.

On to `COc1cc2c(cc1-c1cnn(C3CC3)c1)-c1c(c(C(=O)N3CCOCC3(C)C)nn1-c1ccsc1)CO2` [Compound 215], for which the concentration for a half-maximal effect (EC50) in test [1] is 100 to 1000 nM; on FSHR, < 100 nM.

Take `COc1cc2c(cc1C(O)C(C)C)-c1c(c(C(=O)N3CCOCC3(C)C)nn1-c1ccsc1)CO2` (stereo not drawn) [Compound 131, (3,3-Dimethyl-morpholin-4-yl)-[8-(1-hydroxy-2-methyl-propyl)-7-methoxy-1-thiophen-3-yl-1,4-dihydro-chromeno[4,3-c]pyrazol-3-yl]-methanone]: the values for the EC50 (in test [1]; at FSHR) were 1000 to 5000 nM and < 100 nM, respectively.

As to `[2H]C([2H])([2H])OCC1(C)CCCN1C(=O)c1nn(-c2ccsc2)c2c1COc1cc(OC)c(-c3ccn(C)n3)cc1-2` (stereo not drawn) [Compound 182], the EC50 (in test [1]; on FSHR) was < 100 nM throughout.

Regarding `COCOCCn1cc(-c2cc3c(cc2OC)OCc2c(C(=O)N4CCOCC4(C)C)nn(-c4ccsc4)c2-3)cn1` [Compound 205, (3,3-Dimethyl-morpholin-4-yl)-{7-methoxy-8-[1-(2-methoxymethoxy-ethyl)-1H-pyrazol-4-yl]-1-thiophen-3-yl-1,4-dihydro-chromeno[4,3-c]pyrazol-3-yl}-methanone], the EC50 (in test [1]; at FSHR) was < 100 nM throughout.

Turning to `COc1cc2c(cc1C1=CCOCC1)-c1c(c(C(=O)N3CCOCC3(C)C)nn1-c1ccsc1)CO2` [Compound 189, [8-(3,6-Dihydro-2H-pyran-4-yl)-7-methoxy-1-thiophen-3-yl-1,4-dihydro-chromeno[4,3-c]pyrazol-3-yl]-(3,3-dimethyl-morpholin-4-yl)-methanone], the EC50 (in test [1]; at FSHR) was < 100 nM in each case.

Turning to `[2H]C([2H])([2H])OC1(CN(C(=O)c2nn(-c3ccsc3)c3c2COc2cc(OC)c(-c4ccn(C)c4)cc2-3)C([2H])([2H])[2H])COC1` [Compound 168], the EC50 is 100 to 1000 nM in test [1] and < 100 nM at FSHR.

Turning to `COc1cc2c(cc1CC(C)C)-c1c(c(C(=O)N3CCCN(C(=O)C4CCCO4)CC3)nn1-c1ccsc1)CO2` (stereo not drawn) [Compound 21, (8-Isobutyl-7-methoxy-1-thiophen-3-yl-1,4-dihydro-chromeno[4,3-c]pyrazol-3-yl)-[4-(tetrahydro-furan-2-carbonyl)-[1,4]diazepan-1-yl]-methanone], the EC50 was > 5000 nM in test [1] and 100 to 1000 nM at FSHR.

Turning to `[2H]C([2H])([2H])OCC1(N(C(=O)c2nn(-c3ccsc3)c3c2COc2cc(OC)c(-c4ccnn4C)cc2-3)C([2H])([2H])[2H])COC1` [Compound 119], the concentration giving a half-maximal response (EC50) was 1000 to 5000 nM in test [1] and < 100 nM at FSHR.

For the compound `COc1cc2c(cc1S(=O)(=O)C(C)C)-c1c(c(C(=O)N(C)C(C)(C)C)nn1-c1ccsc1)CO2` [Compound 79, 7-methoxy-8-(propane-2-sulfonyl)-1-thiophen-3-yl-1,4-dihydro-chromeno[4,3-c]pyrazole-3-carboxylic Acid tert-butyl-methyl-amide], the values for the concentration for a half-maximal effect (EC50) (in test [1]; on FSHR) were > 5000 nM and < 100 nM, respectively.

For `COc1cc2c(cc1-c1ccc(C)s1)-c1c(c(C(=O)N(C)C(C)(C)C)nn1-c1ccsc1)CO2` [Compound 93, 7-Methoxy-8-(5-methyl-thiophen-2-yl)-1-thiophen-3-yl-1,4-dihydro-chromeno[4,3-c]pyrazole-3-carboxylic acid tert-butyl-methyl-amide], the EC50 in test [1] is 100 to 1000 nM; on FSHR, < 100 nM.

Values taken from patent US11365199B2, “Pyrazole compounds as modulators of FSHR and uses thereof” (Merck Patent GmbH, priority 2013, dated 2022).
